{"source": "patent US10183032B2", "about": "“Methods for treating bacterial infection” (Ball State Innovation Corporation, priority 2012, dated 2019)", "assay_type_in_all_cases": "cell-based", "key": {"[1]": {"tested_on": "host cell", "assay": "Host cell cytotoxicity in vitro (preliminary data)"}, "[2]": {"tested_on": "Staphylococcus aureus", "assay": "Assessment of bactericidal activity (DMEM, 10% fetal bovine serum)", "conditions": "3.2 × 10^6 CFU S. aureus, 1 h in DMEM with 10% fetal bovine serum; head prints 20 mM"}, "[3]": {"tested_on": "Staphylococcus aureus", "assay": "S. aureus invasion in all cell types examined", "conditions": "HUVEC, HEK, U-87 MG, RAW and A549", "procedure": "Two days prior to the assay, TSB is inoculated with S. aureus (American Type Culture Collection #29213) and incubated overnight (225 rpm, 37° C.). Bacteria are subcultured the next day into fresh TSB. On the day of the assay, bacteria are pelleted (10000×g, 37° C., 3 min), are washed in saline, are pelleted as above, are resuspended in saline, then fluorescently labeled by incubation with rabbit anti-mouse IgG Alexa Fluor 488 (final concentration 8 μg/ml, RT, 20 min). Protein A, a S. aureus cell surface protein, avidly binds IgG thereby labeling the bacteria. Labeled bacteria are washed twice as above and are resuspended to 3×10^8 CFU/ml in saline. Host cells are incubated with the bacteria for 1 hour (1.2×10^8 CFU/ml for same-day recovery, 5×10^6 for recovery after 48 hours, 1.4×10^7 CFU/ml; 5% CO2, 37° C.). […] To detect the level of infection using flow cytometry, cells that have been infected with fluorescently-labeled bacteria are washed extensively with PBS, lifted from 96-well plate by incubation with trypsin, washed extensively in FACS buffer (2% BSA/0.1% sodium azide/PBS), fixed (FACS buffer containing 0.74% formaldehyde), and are counted using an Accuri flow cytometer (BD, Franklin Lakes, N.J.). They are also lifted from culture dishes using cell scrapers, pelleted, fixed (1% BSA/0.74% formaldehyde/PBS), and are counted using an Accuri flow cytometer. […]"}, "[4]": {"tested_on": "Streptococcus pyogenes", "assay": "Streptococcus pyogenes invasion assay in HUVEC, CFU recovery", "conditions": "for inhibition at 10 µM: Streptococcus pyogenes, HUVEC", "procedure": "FIG. 12 is a graph illustrating that ML 141 inhibition of cell invasion by S. pyogenes is reversible. HUVEC were pretreated with ML 141 (10 μM) or with dimethyl sulfoxide (DMSO) as the vehicle control (1 h). Following pretreatment, ML 141-containing media was removed from the washout samples and replaced with DMSO-containing media for 60 min prior to incubation with Streptococcus pyogenes at a multiplicity of infection of 30 (2 h). Extracellular bacteria were removed by gentamicin, an antimicrobial with limited mammalian membrane permeability. Intracellular bacteria were released from HUVEC into the medium by incubation in cold water (5 min). Serial dilutions were incubated (16 h) on Todd Hewitt broth/blood agar plates and colonies enumerated to determine colony forming units (CFU)/ml (*P<0.05 by one-way ANOVA followed by Student-Newman-Keuls post-hoc analysis; n=4/treatment).\nHuman umbilical vein endothelial cells (HUVEC, EMD Millipore, Billerica, Mass., SCCE001) were cultured in EndoGRO-LS complete media (EMD Millipore, SCME001) and maintained in 75 cm^2 vented cap flasks (Thermo-Fisher Scientific, Pittsburgh, Pa., 10-126-37) at 37° C./5% CO2. Streptococcus pyogenes (90-226, M1+) was cultured in Todd Hewitt broth (THB, Thermo-Fisher Scientific, DF0492-17-6) and grown at 37° C. with no shaking.\nTwo days prior to infection, S. pyogenes were cultured in 5 ml THB 18-24 h from a single colony grown on THB/blood (Cleveland Scientific, Bath, Ohio, SBCIT-100) agar (Moorhead & Company, Rocklin, Calif., gelidium), and 10 μl subcultured 18 h prior to infection. HUVEC were seeded in 24-well plates (Sigma-Aldrich, St. Louis, Mo., CLS3524) that had been coated with Attachment Factor (Life Technologies, Carlsbad, Calif., S006100) for 30 min at 37° C./5% CO2. HUVEC were plated at a density of 1.5×10^5 cells/well. For infection, S. pyogenes were harvested by centrifugation, 37° C./3 min/10,000 RPM, washed, and resuspended in fresh 0.85% saline (NaCl, Thermo-Fisher Scientific, S-271-500). Bacteria were diluted to 4.8×10^8 colony forming units (CFU)/ml and incubated at 37° C./5% CO2 with HUVEC at multiplicity of infection and for duration indicated in each figure or table. CFU of 90-226 S. pyogenes had been determined from a growth curve, fitting an OD600 of 0.5 to 4.8×10^8 CFU/ml. After infection, each well was washed three times with sterile 1× phosphate buffered saline (PBS, Life Technologies, 20012043) to remove unattached S. pyogenes. HUVEC were then incubated at 37° C., 5% CO2 for 45 min in 10% fetal bovine serum (FBS, Atlanta Biologicals, Flowery Branch, Ga., S111S0)/PBS containing 500 μg/ml gentamicin (Sigma-Aldrich, G1272). Following the incubation with gentamicin to remove extracellular bacteria, HUVEC were washed three times with PBS. Sterile distilled ice-cold water (Life Technologies, 15230-162) was added to each well for 5 min at room temperature (RT) to permeabilize the host cells. Serial dilutions of this bacteria-containing water were performed in saline, plated on THB/blood agar, and incubated for 18-20 h at 37° C. The following day, colonies were counted to determine CFU/ml recovered from invasion."}}, "note": "Like-named read-outs stand apart in the source and are kept apart here."}
{"smiles": "COc1ccc(C2CC(c3ccccc3)=NN2c2ccc(S(N)(=O)=O)cc2)cc1", "note": "(stereo not shown) [ML 141, 4-[3-(4-methoxyphenyl)-5-phenyl-3,4-dihydropyrazol-2-yl]benzenesulfonamide]", "values": [{"measurement": "concentration at which host cell cytotoxicity was undetectable", "setting": "[1]", "value": "below 30 μM"}, {"measurement": "CFU/mL (×10^9 ± SEM), Compound", "setting": "[2]", "value": "0.9 ± 0.09 ×10^9 CFU/mL"}, {"measurement": "inhibition of invasion in all cell types examined", "setting": "[3]", "value": "inhibited invasion"}, {"measurement": "reversibility of inhibition of S. pyogenes invasion", "setting": "[4]; ML 141 10 μM 1 h, washout 60 min, MOI 30, 2 h", "value": "reversible"}, {"measurement": "% Inhibition (± SEM)", "setting": "[4]; ML 141 10 μM added 1 hour post-infection, 2 h, MOI 0.25", "value": "No difference"}, {"measurement": "% Inhibition (± SEM)", "setting": "[4]; ML 141 10 μM added at time of infection, 2 h, MOI 30", "value": "No difference"}, {"measurement": "inhibition at 10 µM", "setting": "[4]; 2 h, read-out: % Inhibition (± SEM), ML 141 10 μM added at time of infection, 2 h, MOI 0.25 (first line)", "value": "81 ± 7", "unit": "%"}, {"measurement": "inhibition at 10 µM", "setting": "[4]; 2 h, read-out: % Inhibition (± SEM), ML 141 10 μM added at time of infection, 2 h, MOI 0.25 (second line)", "value": "62 ± 10", "unit": "%"}, {"measurement": "inhibition at 10 µM", "setting": "[4]; read-out: % Inhibition (± SEM), ML 141 10 μM added 18-20 hours pre-infection, duration of infection 2 h, MOI 30", "value": "96 ± 4", "unit": "%"}, {"measurement": "inhibition at 10 µM", "setting": "[4]; read-out: % Inhibition (± SEM), ML 141 10 μM added 1 hour post-infection, 2 h, MOI 0.0025", "value": "92 ± 6", "unit": "%"}]}
